What was measured:
[1] = Cumulative urinary and fecal excretion of radioactivity over 48 hours; format: in vivo; conditions: rats, 10 mg/kg i.v., rank among the three oligonucleotides
Method: (§1) A dose of 10 mg/kg of [^35S]-labeled PS-oligonucleotide was administered intravenously (i.v.) to rats (Wistar rats from Charles River, Wilmington, Mass.). Following administration, plasma was collected after 5, 15 and 30 minutes and after 1, 3, 6, 12, 24 and 48 hours. Radioactivity levels were measured to monitor plasma clearance at each time point. Following administration of PS-oligonucleotide, animals (3 rats/group) were sacrificed at 12, 24 and 48 hours. The following tissues were removed and homogenized: muscle, lung, liver, kidney, and spleen. Radioactive levels were measured, to monitor tissue distribution of each of the oligonucleotides. To follow the excretion of PS-oligonucleotides, urine and feces were collected using metabolism cages at 0-3, 3-6, 6-12, 12-24 and 24-48 hour intervals and radioactivity levels were measured using the methods previously reported (Zhang, et al., Biochem. Pharmacol., 49: 929-939 (1995)).
FIGS. 9 and 10 show the cumulative excretion of urinary and fecal radioactivity over 48 hours following administration of radiolabeled oligonucleotides. Urinary excretion represented the major pathway of elimination. […] Oligonucleotide HYB0411 had the lowest urinary excretion rate and Oligonucleotide HYB0413 had the highest urinary excretion rate. Fecal excretion was a minor pathway of elimination (FIG. 11); Oligonucleotide HYB0413 had the highest fecal excretion rate.

[2] = Tissue distribution of radioactivity after i.v. bolus administration of radiolabeled oligonucleotides; format: in vivo; conditions: rats
Source text: (§2) To carry out pharmacokinetic studies, [^35S]-labeled PS-oligonucleotides were synthesized using phosphoramidite chemistry; the intermediate phosphite linkage was oxidized with [^35S8] to incorporate [^35S]. (Agrawal, et al., Synthetic Methods for the Radioisotopic Labeling of Oligonucleotides, in: Antisense Oligonucleotide from Technology to Therapy (Schlingensiepen, ed.) Blackwell, Berlin, pp. 60-77 (1996)). [^35S] was incorporated at the fifth (oligonucleotide HYB0411) or fourth (oligonucleotide HYB0412 and HYB0413) internucleotide linkage.
as §1
The oligonucleotide-equivalent concentrations of radioactivity in tissues after i.v. bolus administration of radiolabeled oligonucleotides to rats are shown in FIGS. 4-8. […] Significant differences in distribution pattern were found among the three oligonucleotides. […] Oligonucleotide HYB0411 had the highest kidney concentration: 40% higher than that of Oligonucleotides HYB0412 and HYB0413.

[3] = Plasma pharmacokinetics of [35S]-labeled PS-oligonucleotides after i.v. bolus administration; format: in vivo; conditions: rats, 10 mg/kg i.v.; for maximum plasma concentration (Cmax): radioactivity, compared with Oligonucleotide HYB0413
Source text: as §2, §1
FIG. 3 illustrates the plasma concentration-time courses of oligonucleotide equivalents after i.v. bolus administration of radiolabeled oligonucleotides into rats, based on quantification of radioactivity. As shown in previous studies (Agrawal, et al., Clin. Pharm. 28:7-16 (1995); Zhang, et al., Biochem. Pharmacol., 49: 929-939 (1995)), PS-oligonucleotides rapidly clear from the plasma. […] No significant difference in plasma elimination half-life (t½β) was observed.

[4] = Chemical forms of radioactivity in tissues by polyacrylamide gel electrophoresis (in vivo stability); conditions: rats

Substance	fecal excretion rate [1]	urinary excretion rate [1]	lung concentration ([2]; 10 mg/kg i.v., compared with HYB0411 and HYB0412)	tissue concentrations in the tissues examined (in general) ([2]; 10 mg/kg i.v., comparison among the three oligonucleotides)	bone marrow concentration ([2]; 12 hours after dosing, compared with HYB0411 and HYB0412, data not shown)	maximum plasma concentration (Cmax) [3]	distribution half-life (t½α) ([3]; compared with Oligonucleotides HYB0412 and HYB0413)	liver concentration, higher than Oligonucleotide HYB0413 ([2]; 10 mg/kg i.v.)	kidney concentration, higher than that of Oligonucleotides HYB0412 and HYB0413 ([2]; 10 mg/kg i.v., highest kidney concentration)	degradation in the kidney ([4]; kidney tissue, PAGE after 5'-post labeling)	in vivo stability ([4]; b74 compared with Oligonucleotide HYB0411, b75 compared with control oligonucleotide)	absorption ([4]; compared with Oligonucleotide HYB0411)
5′-CTCTCGCACCCATCTCTCTCCTTCT-3′ [Oligonucleotide HYB0413, reference compound]	highest	highest	significantly higher concentrations	different from those of Oligonucleotide HYB0411 and Oligonucleotide HYB0412	higher concentrations							
5′-CTCTCGCACCCATCTCTCTCCTTCTGGGG-3′ (all phosphorothioate, sugars by position and methylation of C not given here) [Oligonucleotide HYB0411]		lowest				significantly higher	shorter	approximately 50%	40%	time-dependent degradation		
5′-CTCTCGCACCCATCTCTCTCCTTCTGTGT-3′ [Oligonucleotide HYB0412]						significantly higher		approximately 50%			superior in vivo stability	greater absorption
